Measurements as given in patent US20260224486A1, “DIANHYDROHEXITOL BASED IONIZABLE LIPIDS FOR NUCLEIC ACID DELIVERY” (SANOFI PASTEUR INC., priority 2023, published 2026).

System: BALB/cJ mice
Test: Delivery of hEPO mRNA by intramuscular administration of LNPs; serum hEPO by ELISA
Assay type: in vivo, Mouse
Description: In summary, lipid screening studies were conducted with female BALB/cJ mice 6-8 weeks of age. Mice were dosed with 0.1 μg in 30 μL of LNPs by a single intramuscular (IM) injection into the gastrocnemius leg muscle. Blood samples were taken 6 and 24 hours post injection and hEPO levels were measured in the blood serum of the mice using an ELISA assay according to the manufacture's protocol.
Treatment Regimen: On Day 1, animals from Groups 1-33 were dosed via intramuscular injection while under light isoflurane anesthesia according to the study design table above. Animals in Groups 1-33 were injected with EPO mRNA LNPs in the right leg only. Groups 1 and 17 animals received MC3 control.
Interim Sample Collections: Interim whole blood (^~50 μL) was collected by tail snip or saphenous vein at 6 and 24 hours post dose administration (±5%). Blood samples were collected into serum separator tubes, allowed to clot at room temperature for at least 10 minutes, centrifuged at ambient temperature at minimum 1000 g for 10 minutes and the serum was extracted. All serum samples were stored at nominally −70° C. until analysis hEPO by the Testing Facility. The results of the EPO analysis were included in the Data Submission.
Terminal Blood Collections: Whole blood was collected via cardiac puncture into serum separator tube, allowed to clot at room temperature for at least 10 minutes, centrifuged at ambient temperature at minimum 1000 g for 10 minutes and the serum was extracted. Serum samples were stored at nominally −70° C. until analyzed for hEPO by the Test Facility.
ELISA Assay: Human erythropoietin (hEPO) levels in sera samples were determined by ELISA kit (R&D systems, Cat #DEP-00) according to the manufactory instruction and the results were included in the Data Submission. The “shaker” protocol was used. The serum samples were diluted between 1:40 and 1:100.

[1] = Table 4, further lipids, mouse serum 6 hours post IM injection of hEPO mRNA LNP as in example 3
[2] = Table 5, comparative ether compounds, mouse serum 6 hours post IM injection of hEPO mRNA LNP as in example 3

| SMILES | hEPO 6 Hr (ng/ml) Mean [1] [ng/mL] | other results |
| --- | --- | --- |
| CCCCCCCCCCCOC(=O)CCCCCN(CCCCCCCC(=O)OC(CCCCCCCC)CCCCCCCC)CCCCSC(=O)N[C@H]1CO[C@H]2[C@@H]1OC[C@@H]2NC(=O)SCCCCN(CCCCCCCC(=O)OC(CCCCCCCC)CCCCCCCC)CCCCCC(=O)OCCCCCCCCCCC (stereo in doubt) [Compound 84] | 22.1 |  |
| CCCCCCCCCCCOC(=O)CCCC(O)CN(CCCC(=O)O[C@@H]1CO[C@H]2[C@@H]1OC[C@H]2OC(=O)CCCN(CC(O)CCCCCOC(=O)C(CCCCCCCC)CCCCCCCC)CC(O)CCCC(=O)OCCCCCCCCCCC)CC(O)CCCCCOC(=O)C(CCCCCCCC)CCCCCCCC (stereo partly shown) [Compound 12] | 34.4 |  |
| CCCCCCCCCCC(O)CN(CCCC(=O)S[C@H]1CO[C@H]2[C@@H]1OC[C@@H]2SC(=O)CCCN(CC(O)CCCCCCCCCC)CC(O)CCCCCCCCCC)CC(O)CCCCCCCCCC (stereo partly shown) [Compound 44] | 2.0 |  |
| CCCCCCCCCCC(O)CN(CCCSS[C@H]1CO[C@H]2[C@@H]1OC[C@@H]2SSCCCN(CC(O)CCCCCCCCCC)CC(O)CCCCCCCCCC)CC(O)CCCCCCCCCC (stereo partly shown) [Compound 45] | 2.2 |  |
| CCCCCCCCCCC(O)CN(CCCCS[C@H]1CO[C@H]2[C@@H]1OC[C@@H]2SCCCCN(CC(O)CCCCCCCCCC)CC(O)CCCCCCCCCC)CC(O)CCCCCCCCCC (stereo partly shown) [Compound 46] | 2.1 |  |
| CCCCCCCCCCC(O)CCN(CCCNC(=O)O[C@@H]1CO[C@H]2[C@@H]1OC[C@H]2OC(=O)NCCCN(CC(O)CCCCCCCCCC)CC(O)CCCCCCCCCC)C(O)CCCCCCCCCC (stereo partly shown) [Compound 48] | 81.3 |  |
| CCCCCCCCCCC(O)CN(CCCCC(=O)O[C@@H]1CO[C@H]2[C@@H]1OC[C@H]2OC(=O)CCCN(CC(O)CCCCCCCCCC)CC(O)CCCCCCCCCC)CC(O)CCCCCCCCCC (stereo partly shown) [Compound 56] | 51.9 |  |
| CCCCCCCCCCCCCCC(O)CN(CCCC(=O)O[C@@H]1CO[C@H]2[C@@H]1OC[C@@H]2OC(=O)CCCCN(CC(O)CCCCCCCCCC)CC(O)CCCCCCCCCC)CC(O)CCCCCCCCCCCCCC (stereo partly shown) [Compound 63] | 60.5 |  |
| CCCCCCCCCCCOC(=O)CCCC(O)CN(CCCC(=O)O[C@H]1CO[C@H]2[C@@H]1OC[C@H]2OC(=O)CCCN(CC(O)CCCCCOC(=O)C(CCCCCCCC)CCCCCCCC)CC(O)CCCC(=O)OCCCCCCCCCCC)CC(O)CCCCCOC(=O)C(CCCCCCCC)CCCCCCCC (stereo partly shown) [Compound 64] | 36.2 |  |
| CCCCCCCCCCCOC(=O)CCCC(O)CN(CCCCC(=O)O[C@@H]1CO[C@H]2[C@@H]1OC[C@@H]2OC(=O)CCCN(CC(O)CCCCCC(=O)OC(CCCCCCCC)CCCCCCCC)CC(O)CCCC(=O)OCCCCCCCCCCC)CC(O)CCCCCC(=O)OC(CCCCCCCC)CCCCCCCC (stereo partly shown) [Compound 66] | 23.2 |  |
| CCCCCCCCCCC(O)CN(CCCCCC(=O)O[C@@H]1CO[C@H]2[C@@H]1OC[C@@H]2OC(=O)CCCCN(CC(O)CCCCCCCCCC)CC(O)CCCCCCCCCC)CC(O)CCCCCCCCCC (stereo partly shown) [Compound 67] | 34.4 |  |
| CCCCCCCCC(O)CN(CCCCC(=O)N[C@H]1CO[C@H]2[C@@H]1OC[C@@H]2NC(=O)CCCCN(CC(O)CCCCCCCC)CC(O)CCCCCCCC)CC(O)CCCCCCCC (stereo partly shown) [Compound 70] | 47.6 |  |
| CCCCCCCCCCC(O)CN(CCCCC(=O)N[C@H]1CO[C@H]2[C@@H]1OC[C@@H]2NC(=O)CCCCN(CC(O)CCCCCCCCCC)CC(O)CCCCCCCCCC)CC(O)CCCCCCCCCC (stereo partly shown) [Compound 71] | 72.0 |  |
| CCCCCCCCCCCOC(=O)CCCCCN(CCCCCCCC(=O)OC(CCCCCCCC)CCCCCCCC)CCCC(=O)N[C@H]1CO[C@H]2[C@@H]1OC[C@@H]2NC(=O)CCCN(CCCCCCCC(=O)OC(CCCCCCCC)CCCCCCCC)CCCCCC(=O)OCCCCCCCCCCC [Compound 72] | 6.2 |  |
| CCCCCCCCCCCOC(=O)CCCC(O)CN(CCCC(=O)N[C@H]1CO[C@H]2[C@@H]1OC[C@@H]2NC(=O)CCCN(CC(O)CCCCCC(=O)OC(CCCCCCCC)CCCCCCCC)CC(O)CCCC(=O)OCCCCCCCCCCC)CC(O)CCCCCC(=O)OC(CCCCCCCC)CCCCCCCC (stereo partly shown) [Compound 73] | 23.4 |  |
| CCCCCC/C=C\COC(=O)CCCCCC(O)CN(CCCC(=O)N[C@H]1CO[C@H]2[C@@H]1OC[C@@H]2NC(=O)CCCN(CC(O)CCCCCC(=O)OC/C=C\CCCCCC)CC(O)CCCCCC(=O)OC/C=C\CCCCCC)CC(O)CCCCCC(=O)OC/C=C\CCCCCC (stereo partly shown) [Compound 74] | 2.1 |  |
| CCCCCC/C=C\COC(=O)CCCCCCCN(CCCCCCCC(=O)OC/C=C\CCCCCC)CCCC(=O)N[C@H]1CO[C@H]2[C@@H]1OC[C@@H]2NC(=O)CCCN(CCCCCCCC(=O)OC/C=C\CCCCCC)CCCCCCCC(=O)OC/C=C\CCCCCC [Compound 75] | 2.1 |  |
| CCCCCCCCC(O)CN(CCCOC(=O)O[C@@H]1CO[C@H]2[C@@H]1OC[C@H]2OC(=O)OCCCN(CC(O)CCCCCCCC)CC(O)CCCCCCCC)CC(O)CCCCCCCC (stereo partly shown) [Compound 79] | 21.2 |  |
| CCCCCCCCCCC(O)CN(CCCCC(=O)S[C@H]1CO[C@H]2[C@@H]1OC[C@@H]2SC(=O)CCCCN(CC(O)CCCCCCCCCC)CC(O)CCCCCCCCCC)CC(O)CCCCCCCCCC (stereo partly shown) [Compound 80] | 0.9 |  |
| CCCCCCCCCCC(O)CN(CCCS[C@H]1CO[C@H]2[C@@H]1OC[C@@H]2SCCCN(CC(O)CCCCCCCCCC)CC(O)CCCCCCCCCC)CC(O)CCCCCCCCCC (stereo partly shown) [Compound 81] | 2.3 |  |
| CCCCCCCCCCCCC(O)CN(CCCC(=O)S[C@H]1CO[C@H]2[C@@H]1OC[C@@H]2SC(=O)CCCN(CC(O)CCCCCCCCCCCC)CC(O)CCCCCCCCCCCC)CC(O)CCCCCCCCCCCC (stereo partly shown) [Compound 82] | 3.1 |  |
| CCCCCCCCCCCCC(O)CN(CCCCC(=O)SC1CO[C@@H]2C(SC(=O)CCCCN(CC(O)CCCCCCCCCCCC)CC(O)CCCCCCCCCCCC)CO[C@H]12)CC(O)CCCCCCCCCCCC (stereo partly shown) [Compound 83] | 8.0 |  |
| CCCCCC/C=C\COC(=O)CCCCCCCN(CCCCCCCC(=O)OC/C=C\CCCCCC)CCCCSC(=O)N[C@@H]1CO[C@H]2[C@@H]1OC[C@H]2NC(=O)SCCCCN(CCCCCCCC(=O)OC/C=C\CCCCCC)CCCCCCCC(=O)OC/C=C\CCCCCC [Compound 85] | 23.8 |  |
| CCCCC/C=C\C/C=C\CCCCCCCCC(CCCCCCCC/C=C\C/C=C\CCCCC)OC(=O)CCCN(C)C [MC3, reference compound] |  | hEPO 6 Hr (ng/ml) Mean (Table 2, isosorbide-derived lipids, mouse serum 6 hours post single IM injection of 0.1 μg hEPO mRNA LNP): 7.1 ng/mL; hEPO 6 Hr (ng/mL) Mean (Table 3, isomannide-derived lipids, mouse serum 6 hours post single IM injection of 0.1 μg hEPO mRNA LNP): 5.6 ng/mL |
| CCCCCCCCC(O)CN(CCCO[C@@H]1CO[C@H]2[C@@H]1OC[C@H]2OCCCN(CC(O)CCCCCCCC)CC(O)CCCCCCCC)CC(O)CCCCCCCC (stereo partly shown) [reference compound] |  | hEPO 6 Hr (ng/ml) Mean [2]: 11.3 ng/mL |
| CCCCCCCCCCC(O)CN(CCCO[C@@H]1CO[C@H]2[C@@H]1OC[C@H]2OCCCN(CC(O)CCCCCCCCCC)CC(O)CCCCCCCCCC)CC(O)CCCCCCCCCC (stereo partly shown) [reference compound] |  | hEPO 6 Hr (ng/ml) Mean [2]: 33.8 ng/mL |
| CCCCCCCCCCCCC(O)CN(CCCO[C@@H]1CO[C@H]2[C@@H]1OC[C@H]2OCCCN(CC(O)CCCCCCCCCCCC)CC(O)CCCCCCCCCCCC)CC(O)CCCCCCCCCCCC (stereo partly shown) [reference compound] |  | hEPO 6 Hr (ng/ml) Mean [2]: 13.9 ng/mL |
